# Results: DBAASP
# Tests used:
# Experiment in all cases: ≥ marks a high value that may be exact or a test limit, other limits are often not marked, values filed in µg/mL are converted to µM
# [1] = system: Candida albicans ATCC 64550
# [2] = system: Escherichia coli ATCC 25922
# [3] = system: Staphylococcus aureus ATCC 29213
# [4] = system: Staphylococcus epidermidis ATCC 12228
# Escherichia coli C600 = system: Escherichia coli C600
# [5] = system: Pseudomonas aeruginosa PAO1
# [6] = system: Staphylococcus aureus 209P
# [7] = system: Escherichia coli DH5alpha
# Staphylococcus xylosus = system: Staphylococcus xylosus
# [8] = system: Klebsiella pneumoniae ATCC 700603
# [9] = system: Pseudomonas aeruginosa ATCC 27853
# [10] = system: Staphylococcus aureus ATCC 33591
# [11] = system: Staphylococcus aureus ATCC 700699
# [12] = system: Bacillus cereus ATCC 14579
# [13] = system: Escherichia coli ATCC 35218
# [14] = system: Salmonella enterica subsp. enterica serovar Typhimurium ATCC 14028
# [15] = system: Staphylococcus aureus ATCC 6538
# [16] = system: Streptococcus mutans ATCC 25175
# Escherichia coli JM109 = system: Escherichia coli JM109
# [17] = system: Staphylococcus aureus ATCC 6538P
# Staphylococcus aureus = system: Staphylococcus aureus
# Pseudomonas aeruginosa = system: Pseudomonas aeruginosa
# [18] = system: Candida albicans ATCC 10231
# Escherichia coli D31 = system: Escherichia coli D31
# [19] = system: Pseudomonas aeruginosa ATCC 15442
# [20] = system: Staphylococcus aureus ATCC 25923
smiles,measurement,setting,value
CC(C)[C@H](NC(=O)[C@H](Cc1c[nH]c2ccccc12)NC(=O)[C@H](CCCCN)NC(=O)[C@@H](N)CCCN=C(N)N)C(=O)N[C@@H](Cc1c[nH]c2ccccc12)C(=O)N[C@@H](Cc1c[nH]c2ccccc12)C(=O)N[C@@H](CCCN=C(N)N)C(=O)N[C@@H](CC(N)=O)C(=O)N[C@@H](CCCN=C(N)N)C(N)=O [RKWVWWRNR],MIC,[1],≥ 100 µM
same,MIC,[2],90.1 µM
same,MIC,[3],11.5 µM
same,MIC,[4],5.77 µM
CC(C)[C@@H]1NC(=O)CNC(=O)[C@H](CCCN=C(N)N)NC(=O)[C@H](C(C)C)NC(=O)[C@H](CCCN=C(N)N)NC(=O)[C@H](C)NC(=O)[C@H](Cc2ccc(O)cc2)NC(=O)[C@H](C(C)C)NC(=O)[C@@H](NC(=O)[C@H](Cc2c[nH]c3ccccc23)NC(=O)[C@@H](N)CCCN=C(N)N)CSSC[C@@H](C(=O)N[C@@H](CCCN=C(N)N)C(=O)O)NC(=O)[C@H](CCCN=C(N)N)NC(=O)[C@H](CCCN=C(N)N)NC(=O)[C@H](Cc2ccc(O)cc2)NC(=O)[C@H](CCCN=C(N)N)NC1=O [RWCVYARVRGVRYRRCR],MIC,Escherichia coli C600,3.13 µM
same,MIC,[5],6.25 µM
same,MIC,[6],3.13 µM
CC[C@H](C)[C@H](NC(=O)[C@H](CC(C)C)NC(=O)[C@@H](NC(=O)[C@H](CC(C)C)NC(=O)[C@@H](NC(=O)[C@H](CC(C)C)NC(=O)[C@@H](NC(=O)[C@H](CCCCN)NC(=O)[C@H](CCCN=C(N)N)NC(=O)[C@@H](N)CCCCN)[C@@H](C)CC)[C@@H](C)CC)[C@@H](C)CC)C(=O)N[C@@H](CC(C)C)C(=O)O [KRKILILILIL],MIC,[7],≥ 64 µM
same,MIC,Staphylococcus xylosus,≥ 64 µM
CC[C@H](C)[C@H](NC(=O)[C@H](CC(=O)O)NC(=O)[C@H](CCCCN)NC(=O)[C@H](C)NC(=O)[C@H](C)NC(=O)CNC(=O)[C@H](CCCCN)NC(=O)[C@H](CC(C)C)NC(=O)[C@@H](NC(=O)[C@H](CC(=O)O)NC(=O)[C@@H](NC(=O)[C@@H](NC(=O)CN)C(C)C)C(C)C)[C@@H](C)CC)C(=O)N[C@@H](C)C(=O)N[C@@H](C)C(=O)N[C@@H](Cc1cnc[nH]1)C(=O)N[C@@H](CC(C)C)C(=O)N[C@@H](C)C(=O)N[C@@H](CO)C(=O)N[C@@H](CCCCN)C(=O)N[C@H](C(=O)N[C@@H](CCSC)C(=O)N[C@@H](CC(N)=O)C(=O)N[C@@H](CCCCN)C(=O)N[C@@H](CC(C)C)C(N)=O)C(C)C [GVVDILKGAAKDIAAHLASKVMNKL],MIC,[2],12.5 µM
same,MIC,[8],50 µM
same,MIC,[9],100 µM
same,MIC,[3],> 100 µM
same,MIC,[10],≥ 100 µM
same,MIC,[11],≥ 100 µM
CC[C@H](C)[C@H](N)C(=O)N[C@@H](CC(N)=O)C(=O)N[C@@H](CC(C)C)C(=O)N[C@@H](CCCCN)C(=O)N[C@@H](C)C(=O)N[C@H](C(=O)N[C@@H](C)C(=O)N[C@@H](C)C(=O)N[C@@H](CC(C)C)C(=O)N[C@H](C(=O)N[C@@H](CCCCN)C(=O)N[C@@H](CCCCN)C(=O)N[C@H](C(=O)O)C(C)C)C(C)C)[C@@H](C)CC [INLKAIAALVKKV],MIC,[12],≥ 41.5 µM
same,MIC,[13],8.52 µM
same,MIC,[8],13.3 µM
same,MIC,[14],12.2 µM
same,MIC,[15],43.2 µM
same,MIC,[16],23.6 µM
NCCCC[C@H](NC(=O)[C@H](CCCN=C(N)N)NC(=O)[C@H](CCCCN)NC(=O)CNC(=O)[C@H](CCCCN)NC(=O)[C@H](CCCN=C(N)N)NC(=O)[C@@H](N)CCCCN)C(=O)O [KRKGKRK],MIC,[7],≥ 64 µM
same,MIC,Staphylococcus xylosus,≥ 64 µM
NCCCC[C@H](NC(=O)[C@H](CCCCN)NC(=O)[C@H](CCCN=C(N)N)NC(=O)[C@H](CCCN=C(N)N)NC(=O)[C@H](Cc1ccc(O)cc1)NC(=O)[C@H](Cc1ccc(O)cc1)NC(=O)[C@H](CCCCN)NC(=O)[C@H](CCCN=C(N)N)NC(=O)CNC(=O)[C@@H](N)CCCN=C(N)N)C(=O)O [RGRKYYRRKK],MIC,[1],≥ 100 µM
CC[C@H](C)[C@H](NC(=O)[C@H](C)NC(=O)[C@H](CC(C)C)NC(=O)[C@H](CS)NC(=O)[C@H](CC(C)C)NC(=O)[C@H](C)NC(=O)[C@H](C)NC(=O)[C@H](CS)NC(=O)[C@@H](N)CC(C)C)C(=O)NCC(=O)N[C@@H](CCCN=C(N)N)C(=O)N[C@@H](CCCN=C(N)N)C(N)=O [LCAALCLAIGRR],MIC,Escherichia coli JM109,19.1 µM
same,MIC,[17],4.76 µM
same,MIC,Staphylococcus aureus,38.1 µM
CC[C@H](C)[C@H](NC(=O)[C@H](C)NC(=O)[C@H](CC(C)C)NC(=O)[C@H](CCCN=C(N)N)NC(=O)[C@H](CC(C)C)NC(=O)[C@H](C)N)C(=O)N[C@@H](CCCN=C(N)N)C(=O)N[C@@H](CCCN=C(N)N)C(=O)N[C@@H](CCCN=C(N)N)C(N)=O [ALRLAIRRR],MIC,Escherichia coli JM109,1.33 µM
same,MIC,Pseudomonas aeruginosa,2.67 µM
same,MIC,[17],1.78 µM
same,MIC,Staphylococcus aureus,> 42.7 µM
CC(C)C[C@H](NC(=O)[C@H](C)NC(=O)[C@H](CC(N)=O)NC(=O)[C@H](Cc1ccccc1)NC(=O)[C@@H](NC(=O)[C@@H](NC(=O)CN)C(C)C)[C@@H](C)O)C(=O)N[C@@H](CCCCN)C(=O)NCC(=O)N[C@H](C(=O)N[C@@H](C)C(=O)N[C@@H](CCCCN)C(=O)N[C@H](C(=O)N[C@H](C(=O)N[C@@H](C)C(=O)N[C@@H](C)C(=O)N[C@@H](CCC(N)=O)C(=O)N[C@@H](CC(C)C)C(=O)N[C@@H](CC(C)C)C(=O)N[C@@H](CCCCN)C(=O)N[C@H](C(=O)N[C@@H](C)C(=O)N[C@@H](CCCN=C(N)N)C(N)=O)[C@@H](C)O)C(C)C)[C@@H](C)O)C(C)C [GVTFNALKGVAKTVAAQLLKTAR],MIC,[18],> 100 µM
same,MIC,Escherichia coli D31,≥ 64 µM
same,MIC,[19],≥ 100 µM
same,MIC,[20],16 µM
same,MIC,[16],≥ 100 µM
CC[C@H](C)[C@H](NC(=O)[C@H](CC(C)C)NC(=O)[C@@H](NC(=O)[C@H](CCCN=C(N)N)NC(=O)[C@H](CCCCN)NC(=O)[C@H](CCCN=C(N)N)NC(=O)[C@H](CCCCN)NC(=O)[C@H](CCCN=C(N)N)NC(=O)[C@H](CCCCN)NC(=O)[C@H](CCCN=C(N)N)NC(=O)[C@H](CCCCN)NC(=O)[C@H](CC(C)C)NC(=O)[C@@H](NC(=O)[C@@H](N)CC(C)C)[C@@H](C)CC)[C@@H](C)CC)C(=O)O [LILKRKRKRKRILI],MIC,[7],≥ 64 µM
same,MIC,[9],128 µM
same,MIC,Staphylococcus xylosus,≥ 64 µM
CC[C@H](C)[C@H](NC(=O)[C@H](CC(=O)O)NC(=O)[C@H](CCCCN)NC(=O)[C@H](C)NC(=O)[C@H](C)NC(=O)CNC(=O)[C@H](CCCCN)NC(=O)[C@H](CC(C)C)NC(=O)[C@@H](NC(=O)[C@H](CC(=O)O)NC(=O)[C@@H](NC(=O)[C@@H](NC(=O)CN)C(C)C)C(C)C)[C@@H](C)CC)C(=O)N[C@@H](C)C(=O)NCC(=O)N[C@@H](Cc1cnc[nH]1)C(=O)N[C@@H](CC(C)C)C(=O)N[C@@H](C)C(=O)N[C@@H](CO)C(=O)N[C@@H](CCCCN)C(=O)N[C@H](C(=O)N[C@@H](C)C(=O)N[C@@H](CC(N)=O)C(=O)N[C@@H](CCCCN)C(=O)N[C@@H](CC(C)C)C(N)=O)C(C)C [GVVDILKGAAKDIAGHLASKVANKL],MIC,[2],> 100 µM
same,MIC,[8],> 100 µM
same,MIC,[9],> 100 µM
same,MIC,[3],> 100 µM
same,MIC,[10],≥ 100 µM
same,MIC,[11],≥ 100 µM
